experiment: recombinant barcode read abundance after kanamycin selection (control-corrected) (log10(CPM+1)); higher = more efficient recombination; sequences stand for … in AGTGCAGAGAAAATCGGCCAGTTTTCTCTGCCTGCAGTCCGCATGCCGT…AGATTTATGCAGCGGACTGCCTTTCTCCCAAAGTGATAAACCGGACAGTATCATGGACCGGTTTTCCCGGTAATCCGTATTTGCAAGGTTGGTTTCACT; site = the 11-nt target
How it was run: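 Pooled E. coli screen pairing targets with IS621 bridge RNA target-binding loops. Each oligo (promoter, target, barcode, J23119-driven first 104 bridge RNA bases) was Gibson-cloned into a vector with the remaining 73 bp and T7-inducible recombinase, then co-electroporated with a donor plasmid. Two replicates each were plated on chloramphenicol/ampicillin LB agar (control) or chloramphenicol/ampicillin/kanamycin with 0.1 mM IPTG. Recombination efficiency is recombinant-junction barcode counts as CPM, averaged, control-corrected, reported as log10(CPM+1).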
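Further: IS621 recombinase and bridge RNA in Escherichia coli cells.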

Compared with “TACTTACCTTGGGTTCTAACCTGTTGCCT (site TACTTACCTAG)”, “TACTTACCTTGGGTTCTAACCTGTTGCCT (site TTCTTACCTAG)” is lower in “recombinant barcode read abundance (log10)” value: 0.362 for the first, 0.0922 for the second.

“TACTTAGCTTGGGTTCTAACCTGTTGCCG (site TACTTAGCTCG)” and “TACTTAGCTTGGGTTCTAACCTGTTGCCG (site TAGTTACCTCG)” are within 0.2 log units of each other in “recombinant barcode read abundance (log10)” value: 0.075 for the first, 0.0382 for the second.

First: TAGAACCCTTGGGTTCTAACCTGTTGCTT (site TAGAACCCTAA)
Second: TAGAACCCTTGGGTTCTAACCTGTTGCTT (site TAGATCCCTAA)
The “recombinant barcode read abundance (log10)” value of the first is higher: 0.367 for the first, 0.0967 for the second.

Going from “TAGAACTCTTGGGTTCTAACCTGTTGCCC (site TAGAACTCTAG)” to “TAGAACTCTTGGGTTCTAACCTGTTGCCC (site TAGAACTCTCG)”, the “recombinant barcode read abundance (log10)” value falls from 0.296 to 0.0614.

Compared with “TAGAACTCTTGGGTTCTAACCTGTTGCCC (site TAGAACTCTGG)”, “TAGAACTCTTGGGTTCTAACCTGTTGCCC (site TAGAACTCTTG)” is lower in “recombinant barcode read abundance (log10)” value: 0.427 for the first, 0.0327 for the second.

Going from “TAGAACTCTTGGGTTCTAACCTGTTGCGC (site ACATTTCCTAT)” to “TAGAACTCTTGGGTTCTAACCTGTTGCGC (site TAGAACTCTGC)”, the “recombinant barcode read abundance (log10)” value rises from 0.0572 to 1.

First: TAGAAGCCTTGGGTTCTAACCTGTTGCCG (site TACAAGCCTAG)
Second: TAGAAGCCTTGGGTTCTAACCTGTTGCCG (site TAGAAGCCTCG)
The “recombinant barcode read abundance (log10)” value of the first is lower: 0.0659 for the first, 1.62 for the second.

Going from “TAGAAGGCTTGGGTTCTAACCTGTTGCGT (site TAGAAGGCTAA)” to “TAGAAGGCTTGGGTTCTAACCTGTTGCGT (site TAGAAGGCTAC)”, the “recombinant barcode read abundance (log10)” value rises from 0.445 to 2.75.

First: TAGAAGGCTTGGGTTCTAACCTGTTGCGT (site TAGAAGGCTAG)
Second: TAGAAGGCTTGGGTTCTAACCTGTTGCGT (site TAGAAGGCTAT)
The “recombinant barcode read abundance (log10)” value of the first is lower: 0.273 for the first, 1.96 for the second.

“TAGAATGCTTGGGTTCTAACCTGTTGCTT (site TAGAATGCTAA)” and “TAGAATGCTTGGGTTCTAACCTGTTGCTT (site TAGAATGCTAG)” are within 0.2 log units of each other in “recombinant barcode read abundance (log10)” value: 0.285 for the first, 0.148 for the second.

Going from “TAGACATCTTGGGTTCTAACCTGTTGCAT (site AAGACATCTAA)” to “TAGACATCTTGGGTTCTAACCTGTTGCAT (site TAGACATCTAT)”, the “recombinant barcode read abundance (log10)” value rises from 0.133 to 0.353.

Compared with “TAGACCACTTGGGTTCTAACCTGTTGCAC (site CTATATGCTAA)”, “TAGACCACTTGGGTTCTAACCTGTTGCAC (site TAGACCACTGT)” is higher in “recombinant barcode read abundance (log10)” value: 0.0777 for the first, 0.954 for the second.

Compared with “TAGAGAGCTTGGGTTCTAACCTGTTGCGG (site TAAAGAGCTCC)”, “TAGAGAGCTTGGGTTCTAACCTGTTGCGG (site TACAGAGCTCC)” is lower in “recombinant barcode read abundance (log10)” value: 1.57 for the first, 0.202 for the second.

Going from “TAGAGAGCTTGGGTTCTAACCTGTTGCGG (site TAGAGAGCTCC)” to “TAGAGAGCTTGGGTTCTAACCTGTTGCGG (site TATAGAGCTCC)”, the “recombinant barcode read abundance (log10)” value falls from 2.09 to 0.356.

Compared with “TAGAGCTCTTGGGTTCTAACCTGTTGCTG (site TAGAGCTCTCA)”, “TAGAGCTCTTGGGTTCTAACCTGTTGCTG (site TAGTGCTCTGA)” is lower in “recombinant barcode read abundance (log10)” value: 0.75 for the first, 0.0075 for the second.

First: TAGATAACTTGGGTTCTAACCTGTTGCTG (site ACCCATTCTAC)
Second: TAGATAACTTGGGTTCTAACCTGTTGCTG (site TAGATAACTCA)
The “recombinant barcode read abundance (log10)” value of the first is lower: 0 for the first, 1.02 for the second.

First: TAGCACTCTTGGGTTCTAACCTGTTGCAG (site AAGCACCCTCT)
Second: TAGCACTCTTGGGTTCTAACCTGTTGCAG (site TAGCACTCTCT)
The “recombinant barcode read abundance (log10)” value of the first is lower: 0.0429 for the first, 2.08 for the second.

“TAGCATACTTGGGTTCTAACCTGTTGCCC (site TAGCATACTAG)” and “TAGCATACTTGGGTTCTAACCTGTTGCCC (site TAGCATACTCG)” are within 0.2 log units of each other in “recombinant barcode read abundance (log10)” value: 0.329 for the first, 0.266 for the second.

First: TAGCATACTTGGGTTCTAACCTGTTGCCC (site TAGCATACTGG)
Second: TAGCATACTTGGGTTCTAACCTGTTGCCC (site TAGCATACTTG)
The “recombinant barcode read abundance (log10)” value of the first is higher: 0.941 for the first, 0.187 for the second.

Going from “TAGCATGCTTGGGTTCTAACCTGTTGCAG (site TAGCATGCTAT)” to “TAGCATGCTTGGGTTCTAACCTGTTGCAG (site TAGCATGCTCT)”, the “recombinant barcode read abundance (log10)” value rises from 0.0261 to 1.44.

“TAGCATGCTTGGGTTCTAACCTGTTGCAG (site TAGCATGCTGT)” and “TAGCATGCTTGGGTTCTAACCTGTTGCAG (site TAGCATGCTTT)” are within 0.2 log units of each other in “recombinant barcode read abundance (log10)” value: 0.0603 for the first, 0.017 for the second.

For “TAGCATGCTTGGGTTCTAACCTGTTGCAT (site TAGCATGCTAT)”, the “recombinant barcode read abundance (log10)” value was 0.434.
